This is an account of results in patent US20180000089A1, “NOVEL MICROBIOCIDES” (Syngenta Participations AG, priority 2015, published 2018).

One series deals with Pythium ultimum. Nature of the series: Pythium ultimum / liquid culture (seedling damping off). The format is cell-based. The note with it: Globisporangium ultimum, potato dextrose broth, 24° C., inhibition of growth determined photometrically 2-3 days after application, read-out: disease control. As to the method: 8 Pythium ultimum/Liquid Culture (Seedling Damping Off) Mycelia fragments and oospores of a newly grown liquid culture of the fungus were directly mixed into nutrient broth (potato dextrose broth). After placing a DMSO solution of test compound into a 96-well format microtiter plate at an application rate of 200 ppm, the nutrient broth containing the fungal mycelia/spore mixture was added. The test plates were incubated at 24° C. and the inhibition of growth was determined photometrically 2-3 days after application.

The test system of series [1] is Glomerella lagenarium (Colletotrichum Lagenarium). The series can be described thus: Glomerella lagenarium (Colletotrichum lagenarium) / liquid culture (anthracnose). The format is cell-based. The note with it: Colletotrichum orbiculare, PDB, 24° C., inhibition of growth measured photometrically 3-4 days after application, read-out: disease control. As to the method: 10 Glomerella lagenarium (Colletotrichum Lagenarium)/Liquid Culture (Anthracnose): Conidia of the fungus from cryogenic storage were directly mixed into nutrient broth (PDB potato dextrose broth). After placing a DMSO solution of test compound into a 96-well microtiter plate at an application rate of 200 ppm, the nutrient broth containing the fungal spores was added. The test plates were incubated at 24° C. and the inhibition of growth was measured photometrically 3-4 days after application.

The test system of series [2] is Mycosphaerella graminicola (Septoria tritici). Nature of the series: Mycosphaerella graminicola (Septoria tritici) / liquid culture (Septoria blotch). The format is cell-based. As to conditions: Zymoseptoria tritici, PDB, 24° C., inhibition of growth determined photometrically 4-5 days after application, read-out: disease control. As to the method:
12 Mycosphaerella graminicola (Septoria tritici)/Liquid Culture (Septoria Blotch): Conidia of the fungus from cryogenic storage were directly mixed into nutrient broth (PDB potato dextrose broth). After placing a DMSO solution of test compound into a 96-well microtiter plate at an application rate of 200 ppm, the nutrient broth containing the fungal spores was added. The test plates were incubated at 24° C. and the inhibition of growth was determined photometrically 4-5 days after application.

The test system of the next series is Gaeumannomyces Graminis. Nature of the series: Gaeumannomyces graminis / liquid culture (take-all of cereals). As to conditions: PDB, 24° C., inhibition of growth determined photometrically 4-5 days after application, read-out: disease control. The format is cell-based. As to the method: 13 Gaeumannomyces Graminis/Liquid Culture (Take-all of Cereals): Mycelial fragments of the fungus from cryogenic storage were directly mixed into nutrient broth (PDB potato dextrose broth). […] The test plates were incubated at 24° C. and the inhibition of growth was determined photometrically 4-5 days after application.

In the next series the test system is Plasmopara viticola. Nature of the series: whole plant or invertebrate. The format is in vivo. As to conditions: foliar, read-out: disease control.
Series [3] concerns Monographella nivalis (Microdochium nivale). The series can be described thus: Monographella nivalis (Microdochium nivale) / liquid culture (foot rot cereals). The format is cell-based. As to conditions: PDB, 24° C., inhibition of growth determined photometrically 4-5 days after application, read-out: disease control. As for the experimental part:
14 Monographella nivalis (Microdochium nivale)/liquid culture (foot rot cereals): Conidia of the fungus from cryogenic storage were directly mixed into nutrient broth (PDB potato dextrose broth). After placing a DMSO solution of test compound into a 96-well microtiter plate at an application rate of 200 ppm, the nutrient broth containing the fungal spores was added. The test plates were incubated at 24° C. and the inhibition of growth was determined photometrically 4-5 days after application.

The test system of another series is Fusarium culmorum. Nature of the series: microbe, parasite or virus in culture. The note with it: read-out: disease control. The format is cell-based.
For series [4], the system named is Botryotinia fuckeliana (Botrytis cinerea). Nature of the series: Botryotinia fuckeliana (Botrytis cinerea) / liquid culture (gray mould). The format is cell-based. The note with it: Vogels broth, 24° C., inhibition of growth determined photometrically 3-4 days after application, read-out: disease control. As for the experimental part:
9 Botryotinia fuckeliana (Botrytis cinerea)/liquid culture (Gray mould): Conidia of the fungus from cryogenic storage were directly mixed into nutrient broth (Vogels broth). After placing a DMSO solution of test compound into a 96-well microtiter plate at an application rate of 200 ppm, the nutrient broth containing the fungal spores was added. The test plates were incubated at 24° C. and the inhibition of growth was determined photometrically 3-4 days after application.

The test system of series [5] is Mycosphaerella arachidis (Cercospora arachidicola). Nature of the series: Mycosphaerella arachidis (Cercospora arachidicola) / liquid culture (early leaf spot). The note with it: PDB, 24° C., inhibition of growth determined photometrically 4-5 days after application, read-out: disease control. The format is cell-based. As to the method:
11 Mycosphaerella arachidis (Cercospora arachidicola)/Liquid Culture (Early Leaf Spot): Conidia of the fungus from cryogenic storage were directly mixed into nutrient broth (PDB potato dextrose broth). After placing a DMSO solution of test compound into a 96-well microtiter plate at an application rate of 200 ppm, the nutrient broth containing the fungal spores was added. The test plates were incubated at 24° C. and the inhibition of growth was determined photometrically 4-5 days after application.

The next series concerns Sclerotinia sclerotiorum. Nature of the series: Sclerotinia sclerotiorum / liquid culture (cottony rot). The format is cell-based. As to conditions: PDB, 24° C., inhibition of growth determined visually 3-4 days after application, read-out: disease control. As to the method:
17 Sclerotinia sclerotiorum/liquid culture (cottony rot): Mycelia fragments of a newly grown liquid culture of the fungus were directly mixed into nutrient broth (PDB potato dextrose broth). After placing a (DMSO) solution of the test compounds into a microtiter plate (96-well format) the nutrient broth containing the fungal material was added. The test plates were incubated at 24° C. and the inhibition of growth was determined visually 3-4 days after application.

Structures are written as SMILES.

As for `Cc1ccc(-c2cc3c(cc2Cl)COB3O)cc1C` [Compound 2], the melting point (as a rule, the temperature, or range, at which the solid turns liquid) was 155 to 165 °C. For the same compound, the inhibition of growth at 200 ppm in the series on Pythium ultimum was at least 80%. In addition, in series [1], the inhibition of growth at 200 ppm is at least 80%. Moreover, in series [2], the inhibition of growth at 200 ppm was at least 80%. In the series with Gaeumannomyces Graminis, the inhibition of growth at 200 ppm is at least 80%.
`OB1OCc2cc(Cl)c(-c3ccc(O)cc3)cc21` [Compound 11]: the pest or weed control at 200 ppm in the series with Plasmopara viticola is at least 80%. The inhibition of growth at 200 ppm (with Pythium ultimum; in [3]) was at least 80% each time.
Turning to `COc1ccc(OC)c(-c2cc3c(cc2Cl)COB3O)c1` [Compound 12], the melting point lay in the range of 95 to 115 °C. Further, the pest or weed control at 200 ppm in the series with Plasmopara viticola was at least 80%. Further, in the series with Pythium ultimum, the inhibition of growth at 200 ppm is at least 80%. Besides, in [1], the inhibition of growth at 200 ppm was at least 80%. In addition, the inhibition of growth at 200 ppm in series [2] is at least 80%. For the same compound, the inhibition of growth at 200 ppm in the series on Gaeumannomyces Graminis was at least 80%. For the same compound, the inhibition of growth at 200 ppm in [3] is at least 80%.
As to `Cc1nc2c(-c3cc4c(cc3Cl)COB4O)cccc2s1` [Compound 13, 4-(5-chloro-1-hydroxy-3H-2,1-benzoxaborol-6-yl)-2-methyl-1,3-benzothiazole], the inhibition of growth at 200 ppm (with Pythium ultimum; in series [1]; in series [2]; in the series with Gaeumannomyces Graminis; in series [3]) was at least 80% throughout.
For `Cc1nc2cc(-c3cc4c(cc3Cl)COB4O)ccc2s1` [Compound 14, 5-(5-chloro-1-hydroxy-3H-2,1-benzoxaborol-6-yl)-2-methyl-1,3-benzothiazole], the pest or weed control at 200 ppm in the series with Plasmopara viticola was at least 80%. For the same compound, the inhibition of growth at 200 ppm (in the series on Pythium ultimum; in [3]) was at least 80% in each case.
In the case of `Cc1nc2cccc(-c3cc4c(cc3Cl)COB4O)c2s1` [Compound 15, 7-(5-chloro-1-hydroxy-3H-2,1-benzoxaborol-6-yl)-2-methyl-1,3-benzothiazole], in the series with Plasmopara viticola, the pest or weed control at 200 ppm was at least 80%. Moreover, the inhibition of growth at 200 ppm (in the series with Pythium ultimum; in [3]) was at least 80% throughout.
`OB1OCc2cc(Cl)c(-c3cccc4ncoc34)cc21` [Compound 16]: the inhibition of growth at 200 ppm (in the series on Pythium ultimum; in series [1]; in [2]; in the series on Gaeumannomyces Graminis; in series [3]) was at least 80% in each case.
With `OB1OCc2cc(Cl)c(-c3cc(Br)ccc3-n3cccn3)cc21` [Compound 17], the inhibition of growth at 200 ppm (in the series with Pythium ultimum; in [1]; in [2]; with Gaeumannomyces Graminis; in [3]) was at least 80% in each case.
In the case of `OB1OCc2cc(Cl)c(-c3cc(-n4cccn4)ccc3Br)cc21` [Compound 18], the inhibition of growth at 200 ppm (in the series with Pythium ultimum; in series [1]; in [2]; with Gaeumannomyces Graminis; in series [3]) was at least 80% each time.
`CC(=O)Nc1ccc(F)cc1-c1cc2c(cc1Cl)COB2O` [Compound 19, N-[2-(5-chloro-1-hydroxy-3H-2,1-benzoxaborol-6-yl)-4-fluoro-phenyl]acetamide]: the inhibition of growth at 200 ppm (in the series with Pythium ultimum; in [2]; in the series on Fusarium culmorum) was at least 80% throughout.
With `CC(=O)Nc1ccc(F)c(-c2cc3c(cc2Cl)COB3O)c1` [Compound 20, N-[3-(5-chloro-1-hydroxy-3H-2,1-benzoxaborol-6-yl)-4-fluoro-phenyl]acetamide], the inhibition of growth at 200 ppm (with Pythium ultimum; in series [4]; in series [1]; in series [5]; in [2]; in the series on Gaeumannomyces Graminis) was at least 80% in each case. The inhibition of growth at 200 ppm (in series [3]; in the series on Fusarium culmorum; in the series with Sclerotinia sclerotiorum) was at least 80% in each case.
Take `OB1OCc2cc(Cl)c(-c3cccc4[nH]c(-c5cscn5)nc34)cc21` [Compound 21]: the inhibition of growth at 200 ppm (in the series on Pythium ultimum; in series [4]; in series [5]) was at least 80% each time.
`Cc1cc(C2CC2)nc(Nc2ccccc2-c2cc3c(cc2Cl)COB3O)n1` [Compound 22]: the inhibition of growth at 200 ppm in [4] and in [3] was at least 80% throughout.
Take `Cc1cc(C2CC2)nc(Nc2cccc(-c3cc4c(cc3Cl)COB4O)c2)n1` [Compound 23]: in series [3], the inhibition of growth at 200 ppm was at least 80%.
Still for that read-out and setting: the figure for `Cc1cc(C2CC2)nc(Nc2ccc(-c3cc4c(cc3Cl)COB4O)cc2)n1` [Compound 24] is at least 80%.
With `COc1ccccc1-c1cc2c(cc1F)COB2O` [Compound 25], the melting point fell in the range of 50 to 65 °C. For the same compound, the pest or weed control at 200 ppm in the series with Plasmopara viticola was at least 80%. Besides, in the series on Pythium ultimum, the inhibition of growth at 200 ppm is at least 80%. Moreover, the inhibition of growth at 200 ppm in [1] was at least 80%. Also, the inhibition of growth at 200 ppm in series [5] is at least 80%. Also, in series [2], the inhibition of growth at 200 ppm was at least 80%. Besides, the inhibition of growth at 200 ppm in [3] was at least 80%. For the same compound, the inhibition of growth at 200 ppm in the series with Fusarium culmorum was at least 80%. The inhibition of growth at 200 ppm in the series on Sclerotinia sclerotiorum is at least 80%.
Consider `COc1ccc(-c2cc3c(cc2F)COB3O)cc1` [Compound 26], for which the inhibition of growth at 200 ppm (in the series on Pythium ultimum; in series [1]; in series [2]; in [3]; in the series with Fusarium culmorum) was at least 80% throughout.
In turn, `COc1cccc(-c2cc3c(cc2F)COB3O)c1` [Compound 27, 5-fluoro-6-(3-methoxy-phenyl)-3H-benzo[c][1,2] oxaborol-1-ol] registered a melting point of 118 to 120 °C. For the same compound, in the series on Plasmopara viticola, the pest or weed control at 200 ppm was at least 80%. Also, the inhibition of growth at 200 ppm with Pythium ultimum is at least 80%. Moreover, the inhibition of growth at 200 ppm in series [1] is at least 80%. Also, the inhibition of growth at 200 ppm in series [5] is at least 80%. The inhibition of growth at 200 ppm in series [2] was at least 80%. In addition, the inhibition of growth at 200 ppm in series [3] was at least 80%. Also, the inhibition of growth at 200 ppm in the series with Fusarium culmorum is at least 80%. The inhibition of growth at 200 ppm in the series with Sclerotinia sclerotiorum is at least 80%.
Consider `N#Cc1ccc(-c2cc3c(cc2F)COB3O)cc1` [Compound 29], for which the melting point lay in the range of 270 to 272 °C. Also, the inhibition of growth at 200 ppm in the series on Pythium ultimum was at least 80%. For the same compound, the inhibition of growth at 200 ppm in series [3] was at least 80%.
As to `COC(=O)c1cc(-c2cc3c(cc2Cl)COB3O)ccc1OC` [Compound 30], the inhibition of growth at 200 ppm (in the series on Pythium ultimum; in series [3]) was at least 80% throughout.
Take `OB1OCc2cc(F)c(-c3ccc(Cl)c(Cl)c3)cc21` [Compound 34]: the melting point fell in the range of 243 to 245 °C.
